Columns and labels:
Adenosine receptor A1 = molecular target: T1, Adenosine receptor A1 (Homo sapiens, UniProt P30542)
T1 sequence (P30542 whole entry): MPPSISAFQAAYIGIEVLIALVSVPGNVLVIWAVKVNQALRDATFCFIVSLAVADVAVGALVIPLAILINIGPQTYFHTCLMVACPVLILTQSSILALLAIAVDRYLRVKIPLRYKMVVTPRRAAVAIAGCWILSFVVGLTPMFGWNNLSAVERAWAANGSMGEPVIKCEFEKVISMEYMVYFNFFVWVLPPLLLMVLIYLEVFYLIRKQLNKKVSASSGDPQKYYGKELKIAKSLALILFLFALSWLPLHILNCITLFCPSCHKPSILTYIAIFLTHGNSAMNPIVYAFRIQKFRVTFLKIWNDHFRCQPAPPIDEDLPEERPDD

Thromboxane A2 receptor [1] = molecular target: T2, Thromboxane A2 receptor (Homo sapiens, UniProt P21731); type: functional
T2 sequence (P21731 whole entry): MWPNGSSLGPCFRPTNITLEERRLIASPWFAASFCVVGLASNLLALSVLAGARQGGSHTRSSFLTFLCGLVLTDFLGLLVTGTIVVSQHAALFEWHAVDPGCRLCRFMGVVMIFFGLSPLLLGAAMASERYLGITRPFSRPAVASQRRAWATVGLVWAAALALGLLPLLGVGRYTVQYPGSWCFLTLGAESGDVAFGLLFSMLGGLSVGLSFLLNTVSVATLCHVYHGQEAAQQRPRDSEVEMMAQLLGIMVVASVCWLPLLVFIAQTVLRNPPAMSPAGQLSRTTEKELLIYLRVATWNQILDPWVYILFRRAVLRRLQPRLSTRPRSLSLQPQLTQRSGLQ

Acetylcholinesterase = Acetylcholinesterase (Homo sapiens, UniProt P22303); type: functional
Androgen receptor [2] = molecular target: T3, Androgen receptor (Rattus norvegicus, UniProt P15207); type: functional
T3 sequence (P15207 whole entry): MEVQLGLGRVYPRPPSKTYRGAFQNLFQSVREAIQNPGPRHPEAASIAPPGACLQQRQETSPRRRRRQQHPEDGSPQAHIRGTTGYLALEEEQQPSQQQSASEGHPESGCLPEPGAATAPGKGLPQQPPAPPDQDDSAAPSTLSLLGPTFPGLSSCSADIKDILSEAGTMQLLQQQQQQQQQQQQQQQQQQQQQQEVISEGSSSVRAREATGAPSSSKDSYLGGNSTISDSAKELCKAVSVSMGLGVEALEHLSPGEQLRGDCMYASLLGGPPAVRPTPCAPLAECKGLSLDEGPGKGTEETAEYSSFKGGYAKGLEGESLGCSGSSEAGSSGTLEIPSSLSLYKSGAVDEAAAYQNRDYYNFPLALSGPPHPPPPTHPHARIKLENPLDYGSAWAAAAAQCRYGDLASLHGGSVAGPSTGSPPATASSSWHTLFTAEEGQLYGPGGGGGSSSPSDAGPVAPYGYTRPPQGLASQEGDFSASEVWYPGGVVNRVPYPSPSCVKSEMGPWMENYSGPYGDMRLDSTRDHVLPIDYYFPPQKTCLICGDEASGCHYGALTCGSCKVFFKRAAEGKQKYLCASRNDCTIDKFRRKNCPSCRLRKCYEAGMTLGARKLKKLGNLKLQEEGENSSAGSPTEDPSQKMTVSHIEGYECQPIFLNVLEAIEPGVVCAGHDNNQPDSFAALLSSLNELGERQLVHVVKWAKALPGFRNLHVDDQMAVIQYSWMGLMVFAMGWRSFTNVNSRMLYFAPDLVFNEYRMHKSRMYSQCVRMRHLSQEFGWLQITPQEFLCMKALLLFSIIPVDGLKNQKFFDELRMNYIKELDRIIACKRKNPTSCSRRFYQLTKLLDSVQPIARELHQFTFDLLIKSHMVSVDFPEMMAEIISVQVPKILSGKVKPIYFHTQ

Thromboxane A2 receptor [3] = molecular target: T2, Thromboxane A2 receptor; type: functional, cell-based
[4] = molecular target: Gamma-aminobutyric acid type B receptor subunit 1 (Homo sapiens, UniProt Q9UBS5)
Cannabinoid receptor 1 = Cannabinoid receptor 1 (Homo sapiens, UniProt P21554); type: functional
[5] = molecular target: T4, Muscarinic acetylcholine receptor M5 (Homo sapiens, UniProt P08912)
T4 sequence (P08912 whole entry): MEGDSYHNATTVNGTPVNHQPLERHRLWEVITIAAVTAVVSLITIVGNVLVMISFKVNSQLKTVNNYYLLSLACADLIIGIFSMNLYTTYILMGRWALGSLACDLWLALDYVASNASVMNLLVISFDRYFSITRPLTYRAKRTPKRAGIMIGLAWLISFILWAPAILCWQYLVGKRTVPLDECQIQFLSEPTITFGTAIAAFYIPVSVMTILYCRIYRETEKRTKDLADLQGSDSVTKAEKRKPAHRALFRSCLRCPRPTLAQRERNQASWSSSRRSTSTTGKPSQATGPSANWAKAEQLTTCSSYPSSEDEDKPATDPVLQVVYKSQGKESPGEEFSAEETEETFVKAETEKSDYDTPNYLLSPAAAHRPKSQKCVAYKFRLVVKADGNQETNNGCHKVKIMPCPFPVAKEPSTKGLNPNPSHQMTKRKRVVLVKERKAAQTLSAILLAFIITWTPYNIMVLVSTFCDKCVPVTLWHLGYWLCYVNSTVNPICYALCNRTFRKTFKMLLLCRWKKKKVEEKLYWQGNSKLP

[6] = molecular target: 5-hydroxytryptamine receptor 6 (Homo sapiens, UniProt P50406)
[7] = molecular target: Sodium channel protein type 5 subunit alpha (Homo sapiens, UniProt Q14524); type: functional, cell-based
Androgen receptor [8] = molecular target: T3, Androgen receptor
[9] = molecular target: Hydroxycarboxylic acid receptor 2 (Homo sapiens, UniProt Q8TDS4)
Note: assay procedure not described here.

Chain of Gamma-aminobutyric acid type B receptor subunit 1 (Q9UBS5 whole entry): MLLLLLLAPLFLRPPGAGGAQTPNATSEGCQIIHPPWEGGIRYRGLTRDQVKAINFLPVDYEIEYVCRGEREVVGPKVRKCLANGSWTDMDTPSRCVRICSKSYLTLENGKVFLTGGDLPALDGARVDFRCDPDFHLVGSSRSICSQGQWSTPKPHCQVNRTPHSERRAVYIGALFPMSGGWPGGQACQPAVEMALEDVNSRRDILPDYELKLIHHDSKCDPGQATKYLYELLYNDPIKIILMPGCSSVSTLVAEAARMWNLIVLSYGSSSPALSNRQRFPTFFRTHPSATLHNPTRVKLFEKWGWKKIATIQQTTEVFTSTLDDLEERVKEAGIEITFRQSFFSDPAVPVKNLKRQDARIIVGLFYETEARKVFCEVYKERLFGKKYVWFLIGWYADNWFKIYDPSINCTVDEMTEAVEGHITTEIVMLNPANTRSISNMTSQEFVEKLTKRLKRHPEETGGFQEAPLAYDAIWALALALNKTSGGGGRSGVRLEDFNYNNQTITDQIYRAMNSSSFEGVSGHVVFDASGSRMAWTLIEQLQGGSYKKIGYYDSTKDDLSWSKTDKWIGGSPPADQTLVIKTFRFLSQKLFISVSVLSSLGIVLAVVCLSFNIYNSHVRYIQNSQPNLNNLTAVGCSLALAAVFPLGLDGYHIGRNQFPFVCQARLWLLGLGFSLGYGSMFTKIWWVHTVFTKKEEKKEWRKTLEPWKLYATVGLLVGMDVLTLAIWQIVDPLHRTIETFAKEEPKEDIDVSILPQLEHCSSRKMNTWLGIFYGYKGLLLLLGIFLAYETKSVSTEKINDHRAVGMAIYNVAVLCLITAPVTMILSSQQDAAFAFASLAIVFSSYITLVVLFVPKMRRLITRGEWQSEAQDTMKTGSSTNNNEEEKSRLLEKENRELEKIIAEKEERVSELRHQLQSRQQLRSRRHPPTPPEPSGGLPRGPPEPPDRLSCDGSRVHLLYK
Chain of Acetylcholinesterase (P22303 whole entry): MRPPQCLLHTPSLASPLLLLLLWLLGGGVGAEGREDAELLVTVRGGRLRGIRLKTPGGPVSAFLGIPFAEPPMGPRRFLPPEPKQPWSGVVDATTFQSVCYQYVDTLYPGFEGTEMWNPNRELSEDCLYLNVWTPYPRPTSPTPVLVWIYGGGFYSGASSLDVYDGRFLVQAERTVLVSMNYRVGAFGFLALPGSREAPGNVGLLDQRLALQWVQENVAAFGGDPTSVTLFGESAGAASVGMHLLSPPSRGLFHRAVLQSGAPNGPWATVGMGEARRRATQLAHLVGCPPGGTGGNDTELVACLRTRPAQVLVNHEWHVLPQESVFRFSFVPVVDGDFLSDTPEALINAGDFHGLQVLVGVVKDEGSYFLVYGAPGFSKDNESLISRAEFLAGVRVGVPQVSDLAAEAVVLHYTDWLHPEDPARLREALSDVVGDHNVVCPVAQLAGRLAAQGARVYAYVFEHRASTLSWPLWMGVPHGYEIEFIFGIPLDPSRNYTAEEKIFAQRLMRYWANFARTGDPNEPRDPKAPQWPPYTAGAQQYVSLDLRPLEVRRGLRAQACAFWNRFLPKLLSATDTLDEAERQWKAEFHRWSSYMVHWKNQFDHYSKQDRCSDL
Chain of 5-hydroxytryptamine receptor 6 (P50406 whole entry): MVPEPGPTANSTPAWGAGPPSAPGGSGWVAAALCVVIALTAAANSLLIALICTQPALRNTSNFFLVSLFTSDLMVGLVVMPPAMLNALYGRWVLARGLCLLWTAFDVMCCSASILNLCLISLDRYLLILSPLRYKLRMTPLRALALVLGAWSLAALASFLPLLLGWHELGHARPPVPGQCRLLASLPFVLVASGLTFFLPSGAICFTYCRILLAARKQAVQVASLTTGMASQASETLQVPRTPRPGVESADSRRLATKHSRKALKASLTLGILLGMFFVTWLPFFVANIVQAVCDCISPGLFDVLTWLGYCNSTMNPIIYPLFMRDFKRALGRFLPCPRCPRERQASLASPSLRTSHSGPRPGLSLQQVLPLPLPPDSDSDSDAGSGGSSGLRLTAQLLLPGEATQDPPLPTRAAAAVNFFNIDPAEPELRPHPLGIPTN
Chain of Cannabinoid receptor 1 (P21554 whole entry): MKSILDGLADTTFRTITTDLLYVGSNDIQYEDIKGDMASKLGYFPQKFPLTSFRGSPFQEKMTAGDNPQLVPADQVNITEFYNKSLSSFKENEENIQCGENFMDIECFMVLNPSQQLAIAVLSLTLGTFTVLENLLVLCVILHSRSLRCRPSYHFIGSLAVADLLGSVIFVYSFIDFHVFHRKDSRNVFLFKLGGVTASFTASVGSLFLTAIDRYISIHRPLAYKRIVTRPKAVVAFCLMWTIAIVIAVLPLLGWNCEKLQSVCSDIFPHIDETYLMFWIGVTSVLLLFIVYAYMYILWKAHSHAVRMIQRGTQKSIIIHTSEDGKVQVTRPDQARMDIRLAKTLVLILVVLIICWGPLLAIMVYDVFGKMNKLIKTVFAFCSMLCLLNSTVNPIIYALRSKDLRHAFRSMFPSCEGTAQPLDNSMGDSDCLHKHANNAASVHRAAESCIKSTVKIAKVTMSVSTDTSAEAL
Chain of Sodium channel protein type 5 subunit alpha (Q14524 whole entry): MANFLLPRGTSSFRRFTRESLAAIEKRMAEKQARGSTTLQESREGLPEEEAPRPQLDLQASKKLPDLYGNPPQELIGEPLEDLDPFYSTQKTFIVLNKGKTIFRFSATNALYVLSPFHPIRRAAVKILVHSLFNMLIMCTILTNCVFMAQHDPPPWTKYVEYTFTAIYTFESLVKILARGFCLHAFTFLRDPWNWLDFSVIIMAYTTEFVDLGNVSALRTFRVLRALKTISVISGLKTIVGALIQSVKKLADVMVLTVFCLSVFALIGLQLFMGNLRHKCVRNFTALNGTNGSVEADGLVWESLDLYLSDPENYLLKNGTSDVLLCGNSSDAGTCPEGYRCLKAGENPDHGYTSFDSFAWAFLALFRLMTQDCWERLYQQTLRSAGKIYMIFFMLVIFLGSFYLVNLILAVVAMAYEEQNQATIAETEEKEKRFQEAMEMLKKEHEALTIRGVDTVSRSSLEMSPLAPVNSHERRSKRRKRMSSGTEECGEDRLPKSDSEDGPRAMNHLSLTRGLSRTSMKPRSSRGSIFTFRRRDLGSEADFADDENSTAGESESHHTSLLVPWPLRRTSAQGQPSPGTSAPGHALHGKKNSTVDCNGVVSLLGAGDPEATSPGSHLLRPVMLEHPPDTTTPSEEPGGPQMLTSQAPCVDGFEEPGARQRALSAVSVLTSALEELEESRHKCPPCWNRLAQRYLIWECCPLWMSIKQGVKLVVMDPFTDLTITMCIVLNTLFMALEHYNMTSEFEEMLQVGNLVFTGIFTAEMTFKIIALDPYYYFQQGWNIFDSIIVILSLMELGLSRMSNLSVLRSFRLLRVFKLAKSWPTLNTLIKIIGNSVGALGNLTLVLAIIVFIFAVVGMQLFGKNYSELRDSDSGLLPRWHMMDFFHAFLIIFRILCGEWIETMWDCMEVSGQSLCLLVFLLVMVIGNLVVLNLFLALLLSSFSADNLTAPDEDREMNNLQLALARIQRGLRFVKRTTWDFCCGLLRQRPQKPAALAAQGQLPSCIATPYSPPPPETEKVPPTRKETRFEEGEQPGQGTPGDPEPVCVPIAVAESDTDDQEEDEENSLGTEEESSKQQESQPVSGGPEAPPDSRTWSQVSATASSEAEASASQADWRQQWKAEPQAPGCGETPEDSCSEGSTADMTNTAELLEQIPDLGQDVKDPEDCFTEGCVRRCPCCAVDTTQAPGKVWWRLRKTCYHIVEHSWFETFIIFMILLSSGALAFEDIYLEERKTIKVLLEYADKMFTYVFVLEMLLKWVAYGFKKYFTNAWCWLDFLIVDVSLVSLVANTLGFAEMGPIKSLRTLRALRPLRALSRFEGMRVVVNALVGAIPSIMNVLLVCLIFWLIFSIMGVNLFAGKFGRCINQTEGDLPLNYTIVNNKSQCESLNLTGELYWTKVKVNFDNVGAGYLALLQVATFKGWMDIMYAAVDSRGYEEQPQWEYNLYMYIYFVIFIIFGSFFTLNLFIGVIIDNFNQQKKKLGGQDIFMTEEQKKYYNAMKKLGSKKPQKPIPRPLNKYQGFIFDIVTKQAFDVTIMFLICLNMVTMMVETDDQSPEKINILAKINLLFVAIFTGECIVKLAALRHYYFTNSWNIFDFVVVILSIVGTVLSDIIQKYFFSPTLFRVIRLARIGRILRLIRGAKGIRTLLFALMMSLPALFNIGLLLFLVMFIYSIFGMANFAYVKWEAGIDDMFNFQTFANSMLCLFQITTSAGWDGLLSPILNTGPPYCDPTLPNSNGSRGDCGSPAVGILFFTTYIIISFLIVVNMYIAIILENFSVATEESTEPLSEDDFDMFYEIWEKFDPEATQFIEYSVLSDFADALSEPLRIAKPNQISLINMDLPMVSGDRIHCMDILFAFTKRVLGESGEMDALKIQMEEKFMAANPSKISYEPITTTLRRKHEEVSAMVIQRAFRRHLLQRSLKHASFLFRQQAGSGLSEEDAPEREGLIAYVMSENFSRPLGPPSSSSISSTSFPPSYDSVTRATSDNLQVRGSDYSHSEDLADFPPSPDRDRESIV
Chain of Hydroxycarboxylic acid receptor 2 (Q8TDS4 whole entry): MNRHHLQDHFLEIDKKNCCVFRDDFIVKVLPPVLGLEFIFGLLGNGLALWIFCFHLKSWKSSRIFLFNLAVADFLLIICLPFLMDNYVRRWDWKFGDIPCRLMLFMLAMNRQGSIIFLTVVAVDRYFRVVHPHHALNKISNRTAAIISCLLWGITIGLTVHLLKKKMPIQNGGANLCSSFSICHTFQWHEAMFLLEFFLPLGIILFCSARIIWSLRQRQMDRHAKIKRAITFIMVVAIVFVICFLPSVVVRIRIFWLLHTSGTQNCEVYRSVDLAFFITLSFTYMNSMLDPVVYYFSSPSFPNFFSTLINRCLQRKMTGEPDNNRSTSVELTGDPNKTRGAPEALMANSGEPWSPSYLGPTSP

For COCCCN1CCC(NC(=O)c2cc(Cl)c(N)c3c2OCC3)CC1 [PRUCALOPRIDE], the AC50 (Adenosine receptor A1) was greater than 30 µM.
O=C(OCC(O)CO)c1ccccc1Nc1ccnc2cc(Cl)ccc12 (centres undefined) [GLAFENINE] was tested, and the AC50 (Thromboxane A2 receptor [1]) was greater than 30 µM, the AC50 (Acetylcholinesterase) was greater than 30 µM and the AC50 (Androgen receptor [2]) was greater than 30 µM. The AC50 (Thromboxane A2 receptor [3]) was 9.8 µM.
Molecule N[C@@H]1[C@H]2CN(c3nc4c(cc3F)c(=O)c(C(=O)O)cn4-c3ccc(F)cc3F)C[C@@H]12 [TROVAFLOXACIN] has an AC50 (Thromboxane A2 receptor [1]) greater than 30 µM, an AC50 (Acetylcholinesterase) greater than 30 µM and an AC50 (Androgen receptor [2]) greater than 30 µM. The AC50 (Thromboxane A2 receptor [3]) was greater than 30 µM.
Molecule Cc1cn([C@H]2C=C[C@@H](CO)O2)c(=O)[nH]c1=O [STAVUDINE] has an AC50 (Thromboxane A2 receptor [1]) greater than 30 µM, an AC50 [4] greater than 10 µM and an AC50 (Cannabinoid receptor 1) greater than 10 µM. It also gave an AC50 [5] greater than 10 µM, an AC50 [6] greater than 10 µM and an AC50 (Thromboxane A2 receptor [3]) greater than 30 µM. For the same molecule, the AC50 (Adenosine receptor A1) was greater than 30 µM.
NCC(CC(=O)O)c1ccc(Cl)cc1 (centres undefined) [BACLOFEN] gave an AC50 (Thromboxane A2 receptor [1]) greater than 30 µM, an AC50 (Cannabinoid receptor 1) greater than 10 µM and an AC50 (Acetylcholinesterase) greater than 30 µM. For the same molecule, the AC50 [5] was greater than 10 µM, the AC50 [6] was greater than 10 µM and the AC50 (Thromboxane A2 receptor [3]) was greater than 30 µM.
O=C(Cc1ccc(-c2ccccc2)cc1)Nc1ccccn1 [DIFENPIRAMIDE] gave an AC50 (Adenosine receptor A1) greater than 30 µM.
Work on CCOC(=O)[C@H](CCc1ccccc1)N[C@@H](C)C(=O)N1[C@H](C(=O)O)C[C@H]2CCCC[C@@H]21 [TRANDOLAPRIL] yielded an AC50 (Adenosine receptor A1) greater than 30 µM.
Molecule CC(=O)Nc1ccc(O)cc1 [ACETAMINOPHEN] has an AC50 (Androgen receptor [2]) greater than 30 µM.
CC1(C)NC(=O)N(c2ccc([N+](=O)[O-])c(C(F)(F)F)c2)C1=O [NILUTAMIDE] showed an AC50 (Adenosine receptor A1) greater than 30 µM.
CC[C@H]1OC(=O)[C@H](C)[C@@H](O[C@H]2C[C@@](C)(OC)[C@@H](O)[C@H](C)O2)[C@H](C)[C@@H](O[C@@H]2O[C@H](C)C[C@H](N(C)C)[C@H]2O)[C@](C)(O)C[C@@H](C)CN(C)[C@H](C)[C@@H](O)[C@]1(C)O [AZITHROMYCIN] was tested, and the AC50 [4] was greater than 10 µM, the AC50 (Cannabinoid receptor 1) was greater than 10 µM and the AC50 [5] was greater than 10 µM. It also gave an AC50 [6] greater than 10 µM, an AC50 (Adenosine receptor A1) greater than 30 µM and an AC50 [7] greater than 30 µM.
NS(=O)(=O)Cc1noc2ccccc12 [ZONISAMIDE] was tested, and the AC50 (Androgen receptor [8]) was greater than 10 µM.
CNC1Cc2ccccc2N(C)c2ccccc21 (centres undefined) [METAPRAMINE] gave an AC50 (Thromboxane A2 receptor [1]) greater than 30 µM, an AC50 (Acetylcholinesterase) greater than 30 µM and an AC50 (Androgen receptor [2]) greater than 30 µM. The AC50 (Thromboxane A2 receptor [3]) was greater than 30 µM.
With CCC1=C(C)CN(C(=O)NCCc2ccc(S(=O)(=O)NC(=O)N[C@H]3CC[C@H](C)CC3)cc2)C1=O [GLIMEPIRIDE] the AC50 (Adenosine receptor A1) was greater than 30 µM.
CN1C(C(=O)Nc2ccccn2)=C(O)c2sc(Cl)cc2S1(=O)=O [LORNOXICAM] was tested, and the AC50 (Androgen receptor [8]) was greater than 30 µM.
Cc1cc(C#N)cc(C)c1Oc1nc(Nc2ccc(C#N)cc2)nc(N)c1Br [ETRAVIRINE] showed an AC50 (Adenosine receptor A1) of 22.5 µM.
In the case of CCC(C)n1ncn(-c2ccc(N3CCN(c4ccc(OCC5COC(Cn6cncn6)(c6ccc(Cl)cc6Cl)O5)cc4)CC3)cc2)c1=O (centres undefined) [ITRACONAZOLE], the AC50 [4] is reported as greater than 10 µM, the AC50 (Cannabinoid receptor 1) is reported as greater than 10 µM and the AC50 [5] is reported as greater than 10 µM. It also gave an AC50 [6] greater than 10 µM.
CN(C)CCC(c1ccc(Cl)cc1)c1ccccn1 (centres undefined) [CHLORPHENIRAMINE] showed an AC50 (Cannabinoid receptor 1) greater than 10 µM, an AC50 [5] of 6.12 µM and an AC50 [6] greater than 10 µM. For the same molecule, the AC50 [7] was greater than 30 µM.
Cc1ccc(-c2cc(C(F)(F)F)nn2-c2ccc(S(N)(=O)=O)cc2)cc1 [CELECOXIB] showed an AC50 [4] greater than 10 µM, an AC50 (Cannabinoid receptor 1) greater than 10 µM and an AC50 [5] greater than 10 µM. It also gave an AC50 [6] greater than 10 µM, an AC50 [9] greater than 10 µM and an AC50 (Androgen receptor [8]) greater than 30 µM.

Reference: ChEMBL document CHEMBL5291721, “A preclinical secondary pharmacology resource illuminates target-adverse drug reaction associations of marketed drugs” (Nat Commun, 2023)
